≈ marks a conversion by molar mass, not a printed value. Like-named read-outs stand apart in the source and are kept apart here.
Tests used:
[1] = tested on: Rhinovirus Type 14; type: cell-based, human rhinovirus; conditions: HRV-14; for EC50: Enterovirus, HRV14, read-out: Activity on Rhinovirus Type 14 EC50
[2] = tested on: human embryo lung (MRC-5) cells; experiment: Cytotoxicity (CC50 or MTC) in uninfected MRC-5 cells; conditions: unit not given
[3] = tested on: HRV type 1A; experiment: Inhibition of viral cytopathic effect (CPE), visual scoring or neutral red, HRV type 1A in MRC-5 cells; type: cell-based, human rhinovirus; conditions: for Activity on Rhinovirus Type 1A EC50: HRV type 1A in MRC-5 cells; for Activity on Rhinovirus Type 1A EC50 / EC50: CPE inhibition; for Activity on Rhinovirus Type 1A SI: selectivity index = CC50 or MTC divided by EC50, HRV type 1A, MRC-5 cells; for EC50: Enterovirus, MRC5, HRV type 1A in MRC-5 cells, read-out: Activity on Rhinovirus Type 1A EC50
[4] = tested on: HRV type 2; experiment: Inhibition of viral cytopathic effect (CPE), visual scoring or neutral red, HRV type 2 in KB cells; type: cell-based, human rhinovirus; conditions: for Activity on Rhinovirus Type 2 EC50: HRV type 2 in KB cells, CPE inhibition; for Activity on Rhinovirus Type 2 SI: selectivity index = CC50 or MTC divided by EC50, HRV type 2, KB cells
[5] = tested on: Human Rhinovirus strains 1B, 3, 4, 5, 6, 8, 9, 11, 12, 13, 16, 17, 21, 25, 30, 32, 33, 38, 39, 40, 42, 43, 45, 48, 52, 54, 56, 57, 59, 60, 63, 67, 68, 69, 72 …; experiment: Standard CPE reduction assay against a panel of Human Rhinovirus strains; type: cell-based; conditions: HRV strains panel
[6] = tested on: human embryo lung (MRC-5) cells
[7] = in vitro; conditions: mammalian cell culture (cell line not stated)

SMILES	Activity on Rhinovirus Type 14 EC50 [1] [ng/mL]	Activity on Rhinovirus Type 1A MTC [2]	Activity on Rhinovirus Type 1A EC50 [3] [ng/mL]	Activity on Rhinovirus Type 1A SI [3]	Activity on Rhinovirus Type 2 EC50 [4] [µg/mL]	Activity on Rhinovirus Type 2 SI [4]	Inhibitory activity compared with Pleconaril [5]	Activity on Rhinovirus Type 1A MTC [6]	EC50 [3] [µg/mL]	CC50 [7] [µg/mL]	EC50 [1] [ng/mL]
CCON=Cc1ccc(OCCC2CCN(c3ccc(Cl)nn3)CC2)c(OC)c1 [Compound 5]	7.7	>1	<3.2	>312	0.009	>111	–	–	–	–	–
CON=Cc1ccc(OCCC2CCN(c3ccc(C)nn3)CC2)cc1 [Compound 7]	6.8	>1	<3.2	>312	0.15	>7	–	–	–	–	–
CON=Cc1ccc(OCCC2CCN(c3ccc(Cl)nn3)CC2)cc1 [Compound 8]	7.2	>1	<3.2	>312	0.03	>33	–	–	–	–	–
CCCON=Cc1ccc(OCCC2CCN(c3ccc(Cl)nn3)CC2)cc1 [Compound 11]	7.7	>1	<3.2	>312	0.004	>250	–	–	–	–	–
C=CCON=Cc1ccc(OCCC2CCN(c3ccc(Cl)nn3)CC2)cc1 [Compound 13]	7.8	>1	<3.2	>312	0.006	83	–	–	–	–	–
CCON=Cc1cc(C)c(OCCCc2cc(C)no2)c(C)c1 [Compound 24]	–	>50	<160	>320	<0.05	>500	superior activity to Pleconaril	–	–	–	–
CON=Cc1ccc(OCCC2CCN(c3ccc(Cl)nn3)CC2)c(OC)c1 [Compound 33]	13.8	>1	14	>72.4	0.04	>25	–	–	–	–	–
CCON=Cc1ccc(OCCC2CCN(c3ccc(Cl)nn3)CC2)c(C)c1 [Compound 42]	11.1	>1	6	>177.8	0.006	>167	–	–	–	–	–
CON=Cc1ccc(OCCC2CCN(c3ccc(Cl)nn3)CC2)c(C)c1 [Compound 44]	19.4	>1	<3	>312	0.026	>38	–	–	–	–	–
CCON=Cc1ccc(OCCC2CCN(c3ccc(C)nn3)CC2)c(C)c1 [Compound 51]	9.3	0.663	<3	>207.3	–	–	–	–	–	–	–
CON=Cc1ccc(OCCC2CCN(c3ccc(C)nn3)CC2)c(C)c1 [Compound 52]	5.4	>1	<3	>312	–	–	–	–	–	–	–
CCO/N=C/c1cc(C)c(OCCCc2cc(-c3ccccc3)no2)c(C)c1 [Compound 127, 3,5-Dimethyl-[4-{3-(3-Phenyl-5-isoxazolyl)propoxy)]benzaldehyde O-ethyloxime]	–	–	–	>3	–	–	–	>1	0.329 (≈ 0.869 µM)	–	–
CCON=Cc1ccc(OCCC2CCN(c3ccc(C=O)nn3)CC2)cc1 [Compound 128, 4-(2-[1-(6-Formyl-3-pyridazinyl)-4-piperidinyl]ethoxy)benzaldehyde O-ethyloxime]	–	–	–	>15	–	–	–	>1	0.063 (≈ 0.165 µM)	–	–
CCON=Cc1ccc(OCCC2CCN(c3ccc(C)nn3)CC2)c(O)c1 [Compound 146]	8.4	>1	51	>19	–	–	–	–	–	–	–
CCO/N=C/c1csc(OCCC2CCN(c3ccc(C)nn3)CC2)n1 [Compound 155, 2-(1-(6 methyl-3-pyridazinyl)-4-piperidinylethoxy)-thiazole-4-carboxaldehyde O-ethyl oxime]	–	–	–	–	–	–	–	–	–	> 0.5	13.8 (≈ 0.0368 µM)
CCO/N=C/c1ccc(OCCC2CCN(c3nnc(C)s3)CC2)cc1 [Compound 158]	–	–	–	–	–	–	–	–	–	> 0.5	0.95 (≈ 0.00254 µM)

Reference: patent publication US7078403B1, “Antiviral agents” (Biota Scientific Management Pty Ltd., priority 1999, dated 2006)
